The values that follow come from ChEMBL document CHEMBL1121752, “Cell-specific ligands for selective drug delivery to tissues and organs” (J Med Chem, 1981).

The nature of assay [1]: Compound was evaluated for the inhibition of [125I]-labeled D-mannose-bovine serum albumin binding to alveolar macrophages. Set-up: species or system Rattus norvegicus.
The species entered for assay [2] is Rattus norvegicus. In words: Compound was evaluated for the inhibition of [125I]-labeled D-mannose-bovine serum albumin binding to alveolar macrophages at 50 uM.
The species named for assay [3] is Rattus norvegicus. In words: Compound was evaluated for the inhibition of [125I]-labeled D-mannose-bovine serum albumin binding to alveolar macrophages at 10 uM.
The species entered for assay [4] is Rattus norvegicus. Put plainly: Compound was evaluated for the inhibition of [125I]-labeled D-mannose-bovine serum albumin binding to alveolar macrophages at 100 uM.

With `CC(C)CCCC(C)C1CCC2C3CC=C4CC(OCCCCCCNC(=O)C(CCCCNC(=O)CCSC5OC(CO)C(O)C(O)C5O)NC(=O)[C@@H](CCCCNC(=O)CCSC5OC(CO)C(O)C(O)C5O)NC(=O)CCSC5OC(CO)C(O)C(O)C5O)CCC4(C)C3CCC12C` (stereo partly specified), affinity in assay [1] was put at a Ki of 4 µM.
For the compound `O=C(CSC1OC(CO)C(O)C(O)C1O)NCCCCC(NC(=O)[C@@H](CCCCNC(=O)CSC1OC(CO)C(O)C(O)C1O)NC(=O)CSC1OC(CO)C(O)C(O)C1O)C(=O)O` (stereo partly specified), the inhibition (usually the change of the read-out against control, counted positive when it falls) was determined as 68% in the assay listed under Rattus norvegicus [2], 27% in the assay filed under Rattus norvegicus [3] and 81% in the assay listed under Rattus norvegicus [4].
Take `O=C(CCSC1OC(CO)C(O)C(O)C1O)NCCCCC(NC(=O)C(CCCCNC(=O)CCSC1OC(CO)C(O)C(O)C1O)NC(=O)[C@@H](CCCCNC(=O)CCSC1OC(CO)C(O)C(O)C1O)NC(=O)CCSC1OC(CO)C(O)C(O)C1O)C(=O)O` (stereo partly specified): the affinity in assay [1] corresponds to a Ki of 3.6 µM.
Consider `O=C(CCSC1OC(CO)C(O)C(O)C1O)NCCCC[C@H](NC(=O)CCSC1OC(CO)C(O)C(O)C1O)C(=O)O` (stereo partly specified), for which the inhibition constant Ki – broadly, the dissociation constant of the complex between target and ligand, obtained from inhibition or displacement – in assay [1] worked out at 7.7 µM.
In the case of `CC1OC(SCCC(=O)NCCCCC(NC(=O)[C@@H](CCCCNC(=O)CCSC2OC(C)C(O)C(O)C2O)NC(=O)CCSC2OC(C)C(O)C(O)C2O)C(=O)O)C(O)C(O)C1O` (stereo partly specified), the inhibition in the assay filed under Rattus norvegicus [3] amounted to 9%; in the assay filed under Rattus norvegicus [4] it was 45%.
As for `O=C(CCSC1OC(CO)C(O)C(O)C1O)NCCCCC(NC(=O)[C@@H](CCCCNC(=O)CCSC1OC(CO)C(O)C(O)C1O)NC(=O)CCSC1OC(CO)C(O)C(O)C1O)C(=O)O` (stereo in doubt; 31), the figures for the inhibition in the assay filed under Rattus norvegicus [2], in the assay listed under Rattus norvegicus [3] and in the assay listed under Rattus norvegicus [4] were 0%, 0% and 2%, respectively.
As to `NCCCCCCNC(=O)C(CCCCNC(=O)CCSC1OC(CO)C(O)C(O)C1O)NC(=O)[C@@H](CCCCNC(=O)CCSC1OC(CO)C(O)C(O)C1O)NC(=O)CCSC1OC(CO)C(O)C(O)C1O` (stereo partly specified), the affinity in assay [1], expressed as Ki, was 8 µM. Also, the inhibition in the assay filed under Rattus norvegicus [4] amounted to 5%.
In assay [1], `N/C(CSC1OC(CO)C(O)C(O)C1O)=N\CCCC[C@@H](/N=C(\N)CSC1OC(CO)C(O)C(O)C1O)C(=O)O` (stereo partly specified) came in with a Ki of 100 µM.
In turn, `O=C(CCSC1OC(CO)C(O)C(O)C1O)NCCCC[C@@H](NC(=O)CCSC1OC(CO)C(O)C(O)C1O)C(=O)O` (stereo partly specified) came in with an inhibition constant (Ki) in assay [1] of 6.2 µM.
For the compound `O=C(CCSC1OC(CO)C(O)C(O)C1O)NCCCCC(NC(=O)[C@@H](CCCCNC(=O)CCSC1OC(CO)C(O)C(O)C1O)NC(=O)CCSC1OC(CO)C(O)C(O)C1O)C(=O)O` (stereo in doubt; 14) [listing 1 of 2 here], in assay [1], the affinity, expressed as Ki, was 3.9 µM.
The same measure, in the same setting: with `O=C(CCSC1OC(CO)C(O)C(O)C1O)NCCCCC(NC(=O)[C@@H](CCCCNC(=O)CCSC1OC(CO)C(O)C(O)C1O)NC(=O)CCSC1OC(CO)C(O)C(O)C1O)C(=O)NCCCCCCNC(=O)CCc1ccc(O)cc1` (stereo partly specified) the figure was 9.3 µM.
Take `O=C(CCSC1OC(CO)C(O)C(O)C1O)NCCCCC(NC(=O)[C@@H](CCCCNC(=O)CCSC1OC(CO)C(O)C(O)C1O)NC(=O)CCSC1OC(CO)C(O)C(O)C1O)C(=O)O` (stereo in doubt; 14) [listing 2 of 2 here]: the inhibition was 81% in the assay listed under Rattus norvegicus [2], 43% in the assay filed under Rattus norvegicus [3] and 89% in the assay filed under Rattus norvegicus [4].
As for `CC(=O)C(CCCC/N=C(/N)CSC1OC(CO)C(O)C(O)C1O)NC(=O)[C@@H](CCCC/N=C(\N)CSC1OC(CO)C(O)C(O)C1O)/N=C(\N)CSC1OC(CO)C(O)C(O)C1O` (stereo partly specified), the Ki in assay [1] amounted to 6 µM.
